The values that follow are results of earlier work, collected in US20150320746A1, “PHARMACEUTICAL FORMULATION COMPRISING 2,3-DIMETHYL-6-(N,N-DIMETHYLAMINOETHYL)-6H-INDOLO-(2,3-B)QUINOXALINE” (priority 2011, published 2015).

The test system of the data set is HSV-1.

In the case of `Nc1nc2c(ncn2COCCO)c(=O)[nH]1` [Acyclovir, acyclovir], the “selectivity ratio for the inhibitory activity against HSV-1 in vitro” value was “about 2000”.
